Data on 14 compounds can be found in PubChem BioAssay AID256 (DTP/NCI, 2004).

The subject of this test is CD2F1 mice, L1210 leukemia ip, survival T/C. The experiment in a line: NCI In Vivo Anticancer Drug Screen. Data for tumor model L1210 Leukemia (intraperitoneal) in CD2F1 (CDF1) mice. Conditions: higher = longer survival. In short, it runs like this:
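Activity against a transplanted murine tumor was judged by comparing the compound group with a vehicle group. The outcome in the treated animals was divided by that in the controls.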

The mark [1] stands for this setting: endpoint: mean survival time, dose: 100.0 mg/kg/injection, schedule: Q01DX001 (ip), vehicle: Klucel (hydroxypropylcellulose) (HPC).
Where [2] appears, read: endpoint: mean survival time, dose: 200.0 mg/kg/injection, schedule: Q01DX001 (ip), vehicle: Klucel (hydroxypropylcellulose) (HPC).
Setting [3] is: endpoint: mean survival time, dose: 400.0 mg/kg/injection, schedule: Q01DX001 (ip), vehicle: Klucel (hydroxypropylcellulose) (HPC).
The mark [4] stands for this setting: endpoint: mean survival time, dose: 100.0 mg/kg/injection, schedule: Q04DX003 (ip), vehicle: saline with Tween-80.
[5] abbreviates: endpoint: mean survival time, dose: 200.0 mg/kg/injection, schedule: Q04DX003 (ip), vehicle: saline with Tween-80.
Setting [6] is: endpoint: mean survival time, dose: 100.0 mg/kg/injection, schedule: Q01DX001 (ip), vehicle: saline.
[7] abbreviates: endpoint: mean survival time, dose: 200.0 mg/kg/injection, schedule: Q01DX001 (ip), vehicle: saline.
Where [8] appears, read: endpoint: mean survival time, dose: 50.0 mg/kg/injection, schedule: Q01DX009 (ip), vehicle: saline with Tween-80.
The mark [9] stands for this setting: endpoint: mean survival time, dose: 100.0 mg/kg/injection, schedule: Q01DX009 (ip), vehicle: saline with Tween-80.

Values joined by “and” are separate entries in the source; they are usually repeats but may differ in a detail not shown here. Identical values can stand only once. Toxic doses and inconclusive results are not listed.

`NC(N)=N/N=C/C/C=N/N=C(N)N`: the T/C runs as follows: (endpoint: mean survival time, dose: 30.0 mg/kg/injection, schedule: Q01DX009 (ip), vehicle: saline) 91 % of control; (endpoint: mean survival time, dose: 60.0 mg/kg/injection, schedule: Q01DX009 (ip), vehicle: saline) 90 % of control; (endpoint: mean survival time, dose: 120.0 mg/kg/injection, schedule: Q01DX009 (ip), vehicle: saline) 93 % of control; (endpoint: mean survival time, dose: 240.0 mg/kg/injection, schedule: Q01DX009 (ip), vehicle: saline) 90 % of control; (endpoint: mean survival time, dose: 480.0 mg/kg/injection, schedule: Q01DX009 (ip), vehicle: saline) 90 % of control.
On to `O=C(Nc1ccccc1)Nc1ccc(N(CCCl)CCCl)cc1`, for which the T/C is 105 % of control under setting [1], 108 % of control under setting [2] and 114 % of control under setting [3].
Take `S=c1[n-]c2ccccc2s1.S=c1[n-]c2ccccc2s1.[Cl][Pt+2][Cl]`: the T/C (endpoint: mean survival time, dose: 25.0 mg/kg/injection, schedule: Q04DX003 (ip), vehicle: saline with Tween-80) was 95 % of control; the T/C (endpoint: mean survival time, dose: 50.0 mg/kg/injection, schedule: Q04DX003 (ip), vehicle: saline with Tween-80) is 88 % of control; the T/C under setting [4] is 93 % of control; the T/C under setting [5] is 90 % of control.
Regarding `Cc1cc(Cl)ccc1NC(=O)Nc1c(Oc2ccc(Cl)cc2)ccc(Cl)c1S(=O)(=O)O`, the T/C is 96 % of control under setting [6] and 98 % of control under setting [7].
For `CC(NC=O)(C(=O)O)c1ccccc1` (configuration not stated), the T/C (endpoint: mean survival time, dose: 50.0 mg/kg/injection, schedule: Q01DX001 (ip), vehicle: other) is 102 % of control; the T/C (endpoint: mean survival time, dose: 100.0 mg/kg/injection, schedule: Q01DX001 (ip), vehicle: other) is 97 % of control and 90 % of control; the T/C (endpoint: mean survival time, dose: 200.0 mg/kg/injection, schedule: Q01DX001 (ip), vehicle: other) is 100 % of control and 102 % of control; the T/C (endpoint: mean survival time, dose: 400.0 mg/kg/injection, schedule: Q01DX001 (ip), vehicle: other) was 97 % of control.
`O=C1CCC(=O)N1N1C(=O)CCC1=O`: the T/C under setting [1] is 101 % of control, the T/C under setting [2] was 96 % of control and the T/C under setting [3] was 96 % of control.
Consider `C(#Cc1ccccc1)C[P+](c1ccccc1)(c1ccccc1)c1ccccc1`, for which the T/C by setting is: (endpoint: mean survival time, dose: 1.25 mg/kg/injection, schedule: Q01DX009 (ip), vehicle: saline with Tween-80) 95 % of control; (endpoint: mean survival time, dose: 2.5 mg/kg/injection, schedule: Q01DX009 (ip), vehicle: saline with Tween-80) 101 % of control; (endpoint: mean survival time, dose: 5.0 mg/kg/injection, schedule: Q01DX001 (ip), vehicle: saline with Tween-80) 102 % of control; (endpoint: mean survival time, dose: 5.0 mg/kg/injection, schedule: Q01DX009 (ip), vehicle: saline with Tween-80) 93 % of control and 103 % of control; (endpoint: mean survival time, dose: 10.0 mg/kg/injection, schedule: Q01DX001 (ip), vehicle: saline with Tween-80) 106 % of control; (endpoint: mean survival time, dose: 20.0 mg/kg/injection, schedule: Q01DX001 (ip), vehicle: saline with Tween-80) 104 % of control.
Regarding `CC(C)NC(=O)CCCn1c(=O)c2ccccc2c(=O)n1C`, the T/C is, setting by setting: (endpoint: mean survival time, dose: 25.0 mg/kg/injection, schedule: Q04DX003 (ip), vehicle: saline) 104 % of control; (endpoint: mean survival time, dose: 50.0 mg/kg/injection, schedule: Q04DX003 (ip), vehicle: saline) 96 % of control; (endpoint: mean survival time, dose: 100.0 mg/kg/injection, schedule: Q04DX003 (ip), vehicle: saline) 101 % of control; (endpoint: mean survival time, dose: 200.0 mg/kg/injection, schedule: Q04DX003 (ip), vehicle: saline) 96 % of control; (endpoint: mean survival time, dose: 400.0 mg/kg/injection, schedule: Q04DX003 (ip), vehicle: saline) 98 % of control.
With `CCOC(=N)c1ccccc1`, the T/C by setting is: (endpoint: mean survival time, dose: 100.0 mg/kg/injection, schedule: Q01DX001 (ip), vehicle: saline with Tween-80) 94 % of control; (endpoint: mean survival time, dose: 100.0 mg/kg/injection, schedule: Q04DX003 (ip), vehicle: Klucel (hydroxypropylcellulose) (HPC)) 103 % of control; (endpoint: mean survival time, dose: 200.0 mg/kg/injection, schedule: Q01DX001 (ip), vehicle: saline with Tween-80) 97 % of control; (endpoint: mean survival time, dose: 200.0 mg/kg/injection, schedule: Q04DX003 (ip), vehicle: Klucel (hydroxypropylcellulose) (HPC)) 101 % of control; (endpoint: mean survival time, dose: 400.0 mg/kg/injection, schedule: Q01DX001 (ip), vehicle: saline with Tween-80) 102 % of control; (endpoint: mean survival time, dose: 400.0 mg/kg/injection, schedule: Q04DX003 (ip), vehicle: Klucel (hydroxypropylcellulose) (HPC)) 105 % of control.
As for `CCN(CC)CCOC(=O)c1ccc(NC(=O)COc2ccc3ccccc3c2)cc1`, the T/C runs as follows: (endpoint: mean survival time, dose: 12.5 mg/kg/injection, schedule: Q01DX009 (ip), vehicle: other) 98 % of control and 97 % of control; (endpoint: mean survival time, dose: 25.0 mg/kg/injection, schedule: Q01DX009 (ip), vehicle: other) 97 % of control; (endpoint: mean survival time, dose: 50.0 mg/kg/injection, schedule: Q01DX009 (ip), vehicle: other) 98 % of control and 93 % of control; (endpoint: mean survival time, dose: 100.0 mg/kg/injection, schedule: Q01DX009 (ip), vehicle: other) 94 % of control and 93 % of control; (endpoint: mean survival time, dose: 200.0 mg/kg/injection, schedule: Q01DX009 (ip), vehicle: other) 97 % of control and 93 % of control.
Turning to `CCCCCCCCCCCCCCCc1nnc(SC)s1`, the T/C reads like this: under setting [8], 95 % of control; under setting [9], 88 % of control; under setting [4], 91 % of control; under setting [5], 87 % of control; (endpoint: mean survival time, dose: 400.0 mg/kg/injection, schedule: Q04DX003 (ip), vehicle: saline with Tween-80) 96 % of control.
For `COc1ccc2ccccc2c1NC(C)=O`, the T/C by setting is: under setting [6], 102 % of control; under setting [7], 101 % of control; (endpoint: mean survival time, dose: 400.0 mg/kg/injection, schedule: Q01DX001 (ip), vehicle: saline) 101 % of control.
As for `CCC1(OC(=O)CN2CCN(CCCO)CC2)C(=O)OCc2c1cc1n(c2=O)Cc2cc3ccccc3nc2-1` (configuration not stated), the T/C (endpoint: median survival time, dose: 6.25 mg/kg/injection, schedule: Q04DX002 (ip), vehicle: water) was 106 % of control; the T/C (endpoint: median survival time, dose: 12.5 mg/kg/injection, schedule: Q04DX002 (ip), vehicle: water) was 107 % of control and 108 % of control; the T/C (endpoint: median survival time, dose: 25.0 mg/kg/injection, schedule: Q04DX002 (ip), vehicle: water) is 121 % of control and 111 % of control; the T/C (endpoint: median survival time, dose: 50.0 mg/kg/injection, schedule: Q04DX002 (ip), vehicle: water) is 120 % of control; the T/C (endpoint: median survival time, dose: 100.0 mg/kg/injection, schedule: Q04DX002 (ip), vehicle: water) was 170 % of control.
As to `CC1=CC(C(=O)O)P(C)(=O)C1` (configuration not stated), the T/C (endpoint: mean survival time, dose: 25.0 mg/kg/injection, schedule: Q01DX009 (ip), vehicle: saline with Tween-80) was 101 % of control; the T/C (endpoint: mean survival time, dose: 25.0 mg/kg/injection, schedule: Q04DX002 (ip), vehicle: saline with Tween-80) is 100 % of control; the T/C under setting [8] is 101 % of control; the T/C (endpoint: mean survival time, dose: 50.0 mg/kg/injection, schedule: Q04DX002 (ip), vehicle: saline with Tween-80) was 91 % of control; the T/C under setting [9] is 104 % of control; the T/C (endpoint: mean survival time, dose: 100.0 mg/kg/injection, schedule: Q04DX002 (ip), vehicle: saline with Tween-80) is 95 % of control.
